What all share (experiment): MIC, standard broth dilution method in microtitre
What all share (assay type): cell-based
On the technique in general: In broth dilution the organism is exposed to a series of concentrations in liquid medium.

Assay [1] deals with erythromycin resistant strains of Streptococcus pyogenes. Here is the method: (§1) Using a standard broth dilution method in microtitre, compounds were tested for antibacterial activity. The compounds in the above examples gave minimum inhibitory concentrations (MICs) less than 1 microgram per millilitre against erythromycin-sensitive and erythromycin-resistant strains of Streptococcus pneumoniae and Streptococcus pyogenes.

Assay [2] concerns erythromycin resistant strains of Streptococcus pneumoniae. Here is the method:
as §1

The test system of the next assay is S. pyogenes 3565. To be noted: Streptococcus pyogenes. Here is the method:
as §1
(§2) In addition, the MIC (μg/ml) of test compounds against various organisms was determined including:
(§3) S. aureus Smith ATCC 13709, S. pneumoniae SP030, S. pyogenes 3565, E. faecalis ATCC 29212, H. influenzae ATCC 49247, M. catarrhalis ATCC 23246.

Assay [3] deals with M. catarrhalis ATCC 23246. To be noted: Moraxella catarrhalis, ATCC23246. The protocol: as §1, §2, §3
For the next assay, the system named is E. faecalis ATCC 29212. The settings on record: Enterococcus faecalis, ATCC29212. Here is the method:
as §1, §2, §3

In another assay the test system is S. pneumoniae SP030. The settings on record: Streptococcus pneumoniae. The protocol:
as §1, §2, §3

For a further assay, the system named is H. influenzae ATCC 49247. To be noted: Haemophilus influenzae, ATCC49247. Here is the method: as §1, §2, §3
Assay [4] concerns S. aureus Smith ATCC 13709. To be noted: Staphylococcus aureus, ATCC13709. The protocol:
as §1, §2, §3

[5] abbreviates: H. influenzae ATCC 49247, read-out: MIC.

Counter-ions that a name gives are not always drawn. Like-named read-outs stand apart in the source and are kept apart here.

For the molecule `CC[C@@H]1OC(=O)[C@H](C)[C@H](O[C@H]2C[C@](C)(OC)[C@@H](OCCN(C)CCNc3cc4c(cc3F)c(=O)c(C(=O)O)cn4C3CC3)[C@@H](C)O2)[C@@H](C)[C@H](O[C@H]2O[C@@H](C)C[C@@H](N(C)C)[C@H]2O)[C@](C)(OC)C[C@H](C)C(=O)[C@H](C)[C@H]2OC(=O)O[C@@]12C` [Example 1, 4″-O-(2-{[2-(3-Carboxy-1-cyclopropyl-6-fluoro-4-oxo-1,4-dihydro-quinolin-7-ylamino)-ethyl]-methylamino}-ethyl)-6-O-methyl-erythromycin A 11,12-carbonate bis trifluoroacetate], the MIC is no more than 1 µg/mL in assay [1]; no more than 1 µg/mL in assay [2]; no more than 1 µg/mL in the assay on S. pyogenes 3565; no more than 4 µg/mL in assay [3]; no more than 1 µg/mL against E. faecalis ATCC 29212; no more than 1 µg/mL with S. pneumoniae SP030. For the same molecule, the MIC in the assay on H. influenzae ATCC 49247 is no more than 4 µg/mL; in assay [4] it was no more than 1 µg/mL.
Take `CC[C@@H]1OC(=O)[C@H](C)[C@H](O[C@@H]2C[C@](C)(OC)[C@H](OCCCN(C)CCNc3cc4c(cc3F)c(=O)c(C(=O)O)cn4C3CC3)[C@H](C)O2)[C@@H](C)[C@H](O[C@H]2O[C@@H](C)C[C@@H](N(C)C)[C@H]2O)[C@](C)(OC)C[C@H](C)C(=O)[C@H](C)[C@H]2OC(=O)O[C@@]12C` [Example 2, 4″-O-(3-{[2-(3-Carboxy-1-cyclopropyl-6-fluoro-4-oxo-1,4-dihydro-quinolin-7-ylamino)ethyl]-methylamino}-propyl)-6-O-methyl-erythromycin A 11,12-carbonate]: the MIC in assay [1] is no more than 1 µg/mL; in assay [2] it was no more than 1 µg/mL; in the assay on S. pyogenes 3565, no more than 1 µg/mL; in assay [3], no more than 4 µg/mL; against E. faecalis ATCC 29212 it was no more than 1 µg/mL; against S. pneumoniae SP030 it was no more than 1 µg/mL. The MIC in the assay with H. influenzae ATCC 49247 (setting [5]) is no more than 4 µg/mL; in assay [4], no more than 1 µg/mL.
Consider `CC[C@@H]1OC(=O)[C@H](C)[C@H](O[C@@H]2C[C@](C)(OC)[C@H](OCCCNCCOc3cc4c5c(c3)c(=O)c(C(=O)O)cn5CCC4)[C@H](C)O2)[C@@H](C)[C@H](O[C@H]2O[C@@H](C)C[C@@H](N(C)C)[C@H]2O)[C@](C)(OC)C[C@H](C)C(=O)[C@H](C)[C@H]2OC(=O)O[C@@]12C` [Example 6, 4″-O-{3-[2-(2-Carboxy-1-oxo-6,7-dihydro-1H,5H-pyrido[3,2,1-ij]quinoline-9-yloxy)-ethylamino]-propyl}-6-O-methyl-erythromycin A 11,12-carbonate bisformate], for which the MIC in assay [1] is no more than 1 µg/mL; in assay [2], no more than 1 µg/mL; in the assay with S. pyogenes 3565, no more than 1 µg/mL; in assay [3] it was no more than 4 µg/mL; against E. faecalis ATCC 29212, no more than 1 µg/mL; in the assay on S. pneumoniae SP030 it was no more than 1 µg/mL. The values for the MIC (in the assay with H. influenzae ATCC 49247 (setting [5]); in assay [4]) were no more than 4 µg/mL and no more than 1 µg/mL, respectively.
In the case of `CC[C@@H]1OC(=O)[C@H](C)[C@H](O[C@@H]2C[C@](C)(OC)[C@H](OCCCN(C)CCCc3ccc4c(c3)c(=O)c(C(=O)O)cn4CC)[C@H](C)O2)[C@@H](C)[C@H](O[C@H]2O[C@@H](C)C[C@@H](N(C)C)[C@H]2O)[C@](C)(OC)C[C@H](C)C(=O)[C@H](C)[C@H]2OC(=O)O[C@@]12C` [Example 13, 4″-O-(3-{[3-(3-Carboxy-1-ethyl-4-oxo-1,4-dihydro-quinolin-6-yl)propyl]-methylamino}-propyl)-6-O-methyl-erythromycin A 11,12-carbonate formate], the MIC is no more than 1 µg/mL in assay [1]; no more than 1 µg/mL in assay [2]; no more than 1 µg/mL in the assay on S. pyogenes 3565; no more than 4 µg/mL in assay [3]; no more than 1 µg/mL against E. faecalis ATCC 29212; no more than 1 µg/mL against S. pneumoniae SP030. Also, the MIC with H. influenzae ATCC 49247 (setting [5]) is no more than 4 µg/mL; in assay [4], no more than 1 µg/mL.
Consider `CC[C@@H]1OC(=O)[C@H](C)[C@H](O[C@@H]2C[C@](C)(OC)[C@H](OCCCN(C)CCNc3cc4c(=O)c(C(=O)O)cn(C5CC5)c4cc3Cl)[C@H](C)O2)[C@@H](C)[C@H](O[C@H]2O[C@@H](C)C[C@@H](N(C)C)[C@H]2O)[C@](C)(OC)C[C@H](C)C(=O)[C@H](C)[C@H]2OC(=O)O[C@@]12C` [Example 14, 4″-O-(3-{[2-(3-Carboxy-7-chloro-1-cyclopropyl-4-oxo-1,4-dihydro-quinolin-6-ylamino)ethyl]-methylamino}-propyl)-6-O-methyl-erythromycin A 11,12-carbonate], for which the MIC in assay [1] is no more than 1 µg/mL; in assay [2], no more than 1 µg/mL; in assay [3], no more than 4 µg/mL; in the assay with H. influenzae ATCC 49247 (setting [5]), no more than 4 µg/mL.
Regarding `CC[C@@H]1OC(=O)[C@H](C)[C@H](O[C@@H]2C[C@](C)(OC)[C@H](OCCCN(C)CCNc3nc4c(cc3F)c(=O)c(C(=O)O)cn4CC)[C@H](C)O2)[C@@H](C)[C@H](O[C@H]2O[C@@H](C)C[C@@H](N(C)C)[C@H]2O)[C@](C)(OC)C[C@H](C)C(=O)[C@H](C)[C@H]2OC(=O)O[C@@]12C` [Example 15], the MIC in assay [1] is no more than 1 µg/mL; in assay [2] it was no more than 1 µg/mL; against S. pyogenes 3565 it was no more than 1 µg/mL; in assay [3], no more than 4 µg/mL; in the assay with E. faecalis ATCC 29212, no more than 1 µg/mL; in the assay on S. pneumoniae SP030 it was no more than 1 µg/mL. The MIC was no more than 4 µg/mL in the assay with H. influenzae ATCC 49247 (setting [5]) and no more than 1 µg/mL in assay [4].
Consider `CC[C@@H]1OC(=O)[C@H](C)[C@H](O[C@@H]2C[C@](C)(OC)[C@H](OCCNCCNc3nc4c(cc3F)c(=O)c(C(=O)O)cn4CC)[C@H](C)O2)[C@@H](C)[C@H](O[C@H]2O[C@@H](C)C[C@@H](N(C)C)[C@H]2O)[C@](C)(OC)C[C@H](C)C(=O)[C@H](C)[C@H](O)[C@@]1(C)O` [Example 18, 4″-O-{2-[2-(3-Carboxy-1-ethyl-6-fluoro-4-oxo-1,4-dihydro-[1,8]naphthyridin-7-ylamino)ethyl]-amino}-ethyl}-6-O-methyl-erythromycin A monoformate], for which the MIC in assay [1] was no more than 1 µg/mL; in assay [2], no more than 1 µg/mL; with S. pyogenes 3565, no more than 1 µg/mL; in assay [3], no more than 4 µg/mL; in the assay with E. faecalis ATCC 29212, no more than 1 µg/mL; in the assay on S. pneumoniae SP030, no more than 1 µg/mL. Also, the results for the MIC (in the assay on H. influenzae ATCC 49247 (setting [5]); in assay [4]) were no more than 4 µg/mL and no more than 1 µg/mL, respectively.
`CC[C@@H]1OC(=O)[C@H](C)[C@H](O[C@@H]2C[C@](C)(OC)[C@H](OCCN(C)CCNc3nc4c(cc3F)c(=O)c(C(=O)O)cn4CC)[C@H](C)O2)[C@@H](C)[C@H](O[C@H]2O[C@@H](C)C[C@@H](N(C)C)[C@H]2O)[C@](C)(OC)C[C@H](C)C(=O)[C@H](C)[C@H](O)[C@@]1(C)O` [Example 19]: the MIC was no more than 1 µg/mL in assay [1]; no more than 1 µg/mL in assay [2]; no more than 1 µg/mL with S. pyogenes 3565; no more than 4 µg/mL in assay [3]; no more than 1 µg/mL with E. faecalis ATCC 29212; no more than 1 µg/mL against S. pneumoniae SP030. Besides, the MIC with H. influenzae ATCC 49247 (setting [5]) was no more than 4 µg/mL; in assay [4], no more than 1 µg/mL.
As for `CC[C@@H]1OC(=O)[C@H](C)[C@H](O[C@@H]2C[C@](C)(OC)[C@H](OCCCOCCCc3ccc4c(c3)c(=O)c(C(=O)O)cn4CC)[C@H](C)O2)[C@@H](C)[C@H](O[C@H]2O[C@@H](C)C[C@@H](N(C)C)[C@H]2O)[C@](C)(OC)C[C@H](C)C(=O)[C@H](C)[C@H](O)[C@@]1(C)O` [Example 20, 4″-O-{3-[3-(3-Carboxy-1-ethyl-4-oxo-1,4-dihydro-quinolin-6-yl)-propoxy]-propyl}-6-O-methyl-erythromycin A monoformate], the MIC in assay [1] was no more than 1 µg/mL; in assay [2] it was no more than 1 µg/mL; in the assay with S. pyogenes 3565, no more than 1 µg/mL; in assay [3], no more than 4 µg/mL; against E. faecalis ATCC 29212, no more than 1 µg/mL; against S. pneumoniae SP030 it was no more than 1 µg/mL. Further, the MIC in the assay with H. influenzae ATCC 49247 (setting [5]) was no more than 4 µg/mL; in assay [4] it was no more than 1 µg/mL.
In the case of `CC[C@H]1OC(=O)[C@H](C)[C@@H](O[C@H]2C[C@@](C)(OC)[C@@H](OCCCNCCNc3nc4c(cc3F)c(=O)c(C(=O)O)cn4CC)[C@H](C)O2)[C@H](C)[C@@H](O[C@@H]2O[C@H](C)CC(N(C)C)[C@H]2O)[C@](C)(OC)C[C@@H](C)C(=O)[C@@H](C)[C@H]2NC(=O)O[C@@]21C` (stereo partly drawn) [Example 21, 4″-O-{3-[2-(3-Carboxy-1-ethyl-6-fluoro-4-oxo-1,4-dihydro-[1,8]naphthyridin-7-ylamino)-ethylamino]-propyl}-6-O-methyl-11-desoxy-11-(R)-amino-erythromycin A 11,12-carbamate formate], the MIC was no more than 1 µg/mL in assay [1]; no more than 1 µg/mL in assay [2]; no more than 1 µg/mL against S. pyogenes 3565; no more than 4 µg/mL in assay [3]; no more than 1 µg/mL in the assay with E. faecalis ATCC 29212; no more than 1 µg/mL against S. pneumoniae SP030. The MIC is no more than 4 µg/mL with H. influenzae ATCC 49247 (setting [5]) and no more than 1 µg/mL in assay [4].
On to `CC[C@H]1OC(=O)[C@H](C)[C@@H](O[C@H]2C[C@@](C)(OC)[C@@H](OCCCNCCCc3ccc4c(c3C)c(=O)c(C(=O)O)cn4CC)[C@H](C)O2)[C@H](C)[C@@H](O[C@@H]2O[C@H](C)CC(N(C)C)[C@H]2O)[C@](C)(OC)C[C@@H](C)C(=O)[C@@H](C)[C@H]2NC(=O)O[C@@]21C` (stereo partly drawn) [Example 23, 4″-O-{3-[3-(3-Carboxy-1-ethyl-5-methyl-4-oxo-1,4-dihydro-quinolin-6-yl)-propylamino]-propyl}-6-O-methyl-11-desoxy-11-(R)-amino-erythromycin A 11,12-carbamate formate], for which the MIC in assay [1] was no more than 1 µg/mL; in assay [2], no more than 1 µg/mL; with S. pyogenes 3565 it was no more than 1 µg/mL; in assay [3], no more than 4 µg/mL; in the assay with E. faecalis ATCC 29212, no more than 1 µg/mL; with S. pneumoniae SP030 it was no more than 1 µg/mL. For the same molecule, the MIC in the assay with H. influenzae ATCC 49247 (setting [5]) is no more than 4 µg/mL; in assay [4], no more than 1 µg/mL.
